Test results taken from ChEMBL document CHEMBL4825727, “Cytotoxic oxidovanadium(IV) complexes of tridentate halogen-substituted Schiff bases: First dinuclear V(IV) complexes with O → VIV = O → VIV = O core” (Bioorg Med Chem Lett, 2021).

What was measured:
Type in all cases: functional, cell-based
PC-3 = experiment: Cytotoxicity against human PC-3 cells assessed as reduction in cell viability measured after 48 hrs by MTT assay; conditions: PC-3, 48 h
MCF7 = experiment: Cytotoxicity against human MCF7 cells assessed as reduction in cell viability measured after 48 hrs by MTT assay; conditions: MCF7, 48 h
A2780 = experiment: Cytotoxicity against human A2780 cells assessed as reduction in cell viability measured after 48 hrs by MTT assay; conditions: A2780, 48 h

| SMILES | IC50 (PC-3) [µM] | IC50 (MCF7) [µM] | IC50 (A2780) [µM] |
| --- | --- | --- | --- |
| Oc1ccc(Cl)cc1/C=N/CCc1ccccn1 | 110 | 45 | 51 |
| Oc1ccc(Br)cc1/C=N/CCc1ccccn1 | 108 | 42 | 50 |
| Oc1c(Br)cc(Cl)cc1/C=N/CCc1ccccn1 | 83 | 48 | 48 |
| Oc1ccccc1/C=N/CCc1ccccn1 | > 100 | > 100 | > 100 |
